Common to all, as to test: inhibition of tumour cell growth, NCI panel, 48 h
Assay [1] concerns A498.
In assay [2] the test system is CAKI-1.
Assay [3] relates to CCRF-CEM.
For assay [4], the system named is COLO 205.
Assay [5] concerns HCC 2998.
The test system of assay [6] is HCT-15.
The test system of assay [7] is HL-60.
The test system of assay [8] is HOP-62.
Assay [9] relates to Hs-578T.
Assay [10] concerns IGROV-1.
The test system of assay [11] is K562.
Assay [12] relates to MDA-MB-435.
In assay [13] the test system is NCI-H23.
Assay [14] relates to NCI-H522.
The subject of assay [15] is OVCAR-3.
For assay [16], the system named is SF-539.
The test system of assay [17] is U-251.
Assay [18] relates to UACC-257.
Assay [19] concerns UO-31.
The test system of assay [20] is NCI-H460.

The structures appear in SMILES notation.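 Dose response: 5 concentrations. Exposure: 48 h. Format: 96-well plates. Endpoint: linear interpolation; highest concentration if not reached. GI50: concentration for 50% inhibition of growth.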 Calls of active or inactive are those of the source. Cut-off read from the data, not from the text of the source: active = GI50 up to about 1.1 µM and inactive = higher. A value given as a limit tells only on which side of the number the result lay.

With `O[C@@H]1[C@H](OC2c3ccccc3-c3ccccc32)[C@H](OCc2ccccc2)[C@@H]2OC[C@H]1O2`, the GI50 was > 100 µM (inactive) in assay [1]; > 100 µM (inactive) in [2]; 42.4 µM (inactive) in [3]; > 100 µM (inactive) in assay [4]; 75.7 µM (inactive) in assay [5]; greater than 100 µM in assay [6]. In addition, the GI50 in assay [7] was > 100 µM (inactive); in [8], 25.8 µM (inactive); in assay [9] it was 43.4 µM (inactive); in [10] it was > 100 µM (inactive); in [11], > 100 µM (inactive); in assay [12], > 100 µM (inactive). Besides, the GI50 in assay [13] is > 100 µM (inactive); in [14], > 100 µM (inactive); in assay [15], > 100 µM (inactive); in assay [16], 23 µM (inactive); in assay [17], 43.3 µM (inactive); in [18], > 100 µM (inactive). In addition, the GI50 in assay [19] is > 100 µM (inactive).

`CC(=O)Oc1ccc2c(c1)c1c(=O)oc(N(C)C)nc1n2Cc1ccccc1`: the GI50 is > 41.1 µM (inactive) in assay [1]; 55.6 µM (inactive) in assay [3]; > 56.4 µM (inactive) in assay [4]; > 100 µM (inactive) in assay [5]; 37.9 µM in [6]; 23.6 µM (inactive) in assay [7]. Moreover, the GI50 was > 59.3 µM (inactive) in assay [8]; > 53.3 µM (inactive) in [9]; > 95.1 µM (inactive) in [10]; 39.4 µM (inactive) in assay [11]; 46.2 µM (inactive) in [12]; 97.5 µM (inactive) in assay [13]. Besides, the GI50 in assay [20] was 52.2 µM (inactive); in assay [14], 12.8 µM (inactive); in assay [15], 55.1 µM (inactive); in assay [16] it was > 71.9 µM (inactive); in [17], 39 µM (inactive); in assay [18], > 86.5 µM (inactive). Moreover, the GI50 in assay [19] is 10.8 µM (inactive).

For `CN(C)CCCn1cnc2cc(Cl)c(Cl)cc21`, the GI50 is > 100 µM (inactive) in assay [1]; 64.3 µM (inactive) in assay [2]; 55.7 µM (inactive) in assay [3]; 79.3 µM (inactive) in assay [4]; 22 µM (inactive) in assay [5]; greater than 100 µM in assay [6]. Also, the GI50 was > 100 µM (inactive) in assay [7]; > 100 µM (inactive) in assay [8]; > 100 µM (inactive) in assay [9]; 56.4 µM (inactive) in assay [10]; 67.3 µM (inactive) in assay [11]; 55.8 µM (inactive) in assay [12]. Further, the GI50 in assay [13] was > 100 µM (inactive); in assay [20] it was 91.8 µM (inactive); in [14], > 100 µM (inactive); in [15], > 100 µM (inactive); in assay [17], > 100 µM (inactive); in [18] it was 19.8 µM (inactive). For the same compound, the GI50 in assay [19] is 70 µM (inactive).

Regarding `CCc1cc2c(c3c1CCC3=O)CC1(Cc3ccc(C)cc3C1)C2` (stereo not drawn), the GI50 was 27.4 µM (inactive) in assay [1]; 13.6 µM (inactive) in assay [3]; 27.8 µM (inactive) in [4]; 33.9 µM (inactive) in assay [5]; 46.3 µM in assay [6]; 21.7 µM (inactive) in assay [7]. Also, the GI50 in [8] is > 100 µM (inactive); in [9] it was 19.7 µM (inactive); in assay [10], 42.9 µM (inactive); in [11] it was 30.5 µM (inactive); in [12], 33.7 µM (inactive); in assay [13] it was > 100 µM (inactive). The GI50 in assay [14] was 23.8 µM (inactive); in assay [15], 37.3 µM (inactive); in assay [16], > 100 µM (inactive); in [17], 30.5 µM (inactive); in [18], 32.2 µM (inactive); in assay [19], 0.159 µM (active).

In the case of `CC(=O)O[C@H]1CC[C@@]2(C)C(=CC[C@@H]3[C@@H]2CC[C@]2(C)c4c(C)nn(-c5ccccc5)c4C[C@@H]32)C1`, the GI50 in [1] was 24 µM (inactive); in assay [2], 20.9 µM (inactive); in assay [3] it was 11.2 µM (inactive); in assay [4] it was 15.5 µM (inactive); in [5], 16.4 µM (inactive); in assay [6], 37.1 µM. Further, the GI50 was 24.2 µM (inactive) in [7]; 15.5 µM (inactive) in assay [8]; 11.2 µM (inactive) in [9]; 43.4 µM (inactive) in assay [10]; 2.65 µM (inactive) in [11]; 45.7 µM (inactive) in assay [12]. In addition, the GI50 in [13] is 13.2 µM (inactive); in assay [20], 13.8 µM (inactive); in [14] it was 13.7 µM (inactive); in [15] it was 28.7 µM (inactive); in [17], 20.7 µM (inactive); in assay [18] it was 29.9 µM (inactive). The GI50 in assay [19] was 19.4 µM (inactive).

Take `NNC(=O)c1ccccc1NC(=O)/C(=C/c1ccccc1O)NC(=O)c1ccccc1`: the GI50 in assay [1] is 94.6 µM (inactive); in assay [2], 12.9 µM (inactive); in assay [3], > 100 µM (inactive); in assay [4] it was > 100 µM (inactive); in assay [5], 10.9 µM (inactive); in assay [6] it was 21.7 µM. For the same compound, the GI50 is > 100 µM (inactive) in [7]; 14.7 µM (inactive) in assay [9]; 14.5 µM (inactive) in [10]; > 100 µM (inactive) in assay [11]; 57.7 µM (inactive) in assay [12]; 38.4 µM (inactive) in assay [13]. Moreover, the GI50 was 22.8 µM (inactive) in assay [20]; 13.4 µM (inactive) in assay [14]; 20.1 µM (inactive) in [16]; 33.6 µM (inactive) in assay [17]; > 100 µM (inactive) in assay [18]; 11.9 µM (inactive) in assay [19].

As for `COC(=O)CN(CC1O[C@@H]2OC(C)(C)O[C@@H]2C1NC(C)=O)C(=O)OCc1ccccc1` (stereo partly drawn), the GI50 in assay [1] is > 100 µM (inactive); in assay [2], > 100 µM (inactive); in assay [4], > 100 µM (inactive); in assay [5] it was > 100 µM (inactive); in assay [6], greater than 100 µM; in assay [7], > 100 µM (inactive). Also, the GI50 in assay [8], in assay [9], in assay [10], in assay [11], in assay [12] and in assay [20] was > 100 µM (inactive) each time. Further, the GI50 in [14], in assay [15], in [16], in [17], in assay [18] and in assay [19] was > 100 µM (inactive) throughout.

With `O=c1[nH]c(=O)n(COCc2ccccc2)c2ccsc12`, the GI50 in assay [1] is > 100 µM (inactive); in assay [2], > 100 µM (inactive); in [3], 60.4 µM (inactive); in assay [4], > 100 µM (inactive); in assay [5] it was > 100 µM (inactive); in assay [6], 29.2 µM. Besides, the GI50 was > 10 µM (inactive) in [7]; 96.4 µM (inactive) in [8]; 49.1 µM (inactive) in [9]; > 100 µM (inactive) in [10]; 59 µM (inactive) in assay [11]; > 100 µM (inactive) in assay [12]. Also, the GI50 is 55.8 µM (inactive) in [20]; > 100 µM (inactive) in assay [14]; 66.8 µM (inactive) in [16]; > 100 µM (inactive) in assay [17]; > 100 µM (inactive) in assay [18].

`Cc1cc2c(cc1-c1cc3c(cc1C)C(C(C)C)=C(O)C(=O)/C3=C\Nc1ccccn1)/C(=C/Nc1ccccn1)C(=O)C(O)=C2C(C)C`: the GI50 in assay [1] was > 100 µM (inactive); in assay [2], 45.8 µM (inactive); in [3] it was 12.2 µM (inactive); in assay [4], > 100 µM (inactive); in [5] it was 22.5 µM (inactive); in assay [6] it was 33.9 µM. Besides, the GI50 was 27.4 µM (inactive) in assay [7]; 32 µM (inactive) in assay [9]; 31.1 µM (inactive) in assay [10]; 31.8 µM (inactive) in [11]; 43.5 µM (inactive) in [12]; 46.9 µM (inactive) in [13]. The GI50 in [20] is 43.2 µM (inactive); in [14], 21.8 µM (inactive); in assay [15], 34.3 µM (inactive); in assay [16], 85.1 µM (inactive); in [17], 34.4 µM (inactive); in assay [18] it was > 100 µM (inactive).

Take `COc1ccc(C2SCC(=O)N2NC(=O)C(C)Oc2ccc(Cl)cc2Cl)cc1` (stereo not drawn): the GI50 was 25 µM (inactive) in assay [1]; 21.8 µM (inactive) in assay [2]; 73.8 µM (inactive) in [4]; 55.6 µM (inactive) in assay [5]; greater than 100 µM in assay [6]; 14.2 µM (inactive) in assay [7]. In addition, the GI50 in assay [8] was 20.6 µM (inactive); in [9], 34.5 µM (inactive); in assay [10], 37 µM (inactive); in assay [11], 27 µM (inactive); in assay [12], 76.7 µM (inactive); in [13], 64.9 µM (inactive). In addition, the GI50 in [20] is 81.1 µM (inactive); in [14], 91.2 µM (inactive); in assay [15], 66.2 µM (inactive); in assay [16], 17 µM (inactive); in assay [17], 33.7 µM (inactive); in assay [18], 42.4 µM (inactive). Moreover, the GI50 in [19] was 88.5 µM (inactive).

On to `Cc1cccc2c1CC1(Cc3ccccc3C1=O)C2=O` (stereo not drawn), for which the GI50 in assay [1] is > 100 µM (inactive); in assay [3], > 100 µM (inactive); in assay [4] it was > 100 µM (inactive); in assay [5], > 100 µM (inactive); in [6], greater than 100 µM; in assay [7], > 100 µM (inactive). Also, the GI50 in assay [8] was 35.7 µM (inactive); in [9], 26.2 µM (inactive); in assay [10] it was > 100 µM (inactive); in assay [11], > 100 µM (inactive); in assay [12] it was > 100 µM (inactive); in [13], > 100 µM (inactive). For the same compound, the GI50 in [20], in assay [14], in [15], in assay [16], in assay [17] and in assay [18] was > 100 µM (inactive) in each case. Further, the GI50 in assay [19] is > 100 µM (inactive).

(Values after ChEMBL document CHEMBL1201862, “PubChem BioAssay data set” (2004).)
